Data as given in patent publication US12655116B2, “Substituted isophthalic acid diamides” (Bayer Aktiengesellschaft, priority 2020, dated 2026).

How the values were obtained:
VIOTR [1] = assay: Post-emergence herbicidal action against VIOTR; type: in vivo, Viola tricolor
Procedure, shortened: (§1)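 Sandy loam, greenhouse; treatment 2–3 weeks after sowing, one-leaf stage. Aqueous suspension or emulsion from WP/EC sprayed on foliage (600–800 l/ha, 0.2% wetting agent). Readout: visual % action, ~3 weeks.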

SETVI [2] = assay: Pre-emergence herbicidal action against SETVI; type: in vivo, Setaria viridis
Procedure, shortened: (§2)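 Seeds sown in sandy loam, soil-covered; compound sprayed on soil surface pre-emergence. Application: WP/EC, 600–800 l/ha, 0.2% wetting agent. Readout: visual % damage at 3 weeks.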

ABUTH [3] = assay: Post-emergence herbicidal action against ABUTH; type: in vivo, Abutilon theophrasti; conditions: visual assessment about 3 weeks after treatment vs untreated controls
Procedure, shortened: as §1

PHBPU [4] = assay: Pre-emergence herbicidal action against PHBPU; type: in vivo, Pharbitis purpurea; conditions: dosage 80 g/ha
Procedure, shortened: as §2

ECHCG [5] = assay: Post-emergence herbicidal action against ECHCG; type: in vivo, Echinochloa crus-galli
Procedure, shortened: as §1

ECHCG [6] = assay: Pre-emergence herbicidal action against ECHCG; type: in vivo, Echinochloa crus-galli; conditions: 80 g/ha
Procedure, shortened: as §2

VERPE [7] = assay: Pre-emergence herbicidal action against VERPE; type: in vivo, Veronica persica
Procedure, shortened: as §2

AMARE [8] = assay: Pre-emergence herbicidal action against AMARE; type: in vivo, Amaranthus retroflexus
Procedure, shortened: as §2

VIOTR [9] = assay: Pre-emergence herbicidal action against VIOTR; type: in vivo, Viola tricolor
Procedure, shortened: as §2

ABUTH [10] = assay: Pre-emergence herbicidal action against ABUTH; type: in vivo, Abutilon theophrasti; conditions: for Pre-emergence action against ABUTH (herbicidal activity): 80 g/ha, scored visually after 3 weeks vs untreated controls (100% = plants have died, 0% = like control plants); for Pre-emergence action against ABUTH (herbicidal activity in percent): dosage 20 g/ha, scored visually after 3 weeks vs untreated controls, 100% = plants have died, 0% = like control plants
Procedure, shortened: as §2

PHBPU [11] = assay: Post-emergence herbicidal action against PHBPU; type: in vivo, Pharbitis purpurea
Procedure, shortened: as §1

MATIN [12] = assay: Pre-emergence herbicidal action against MATIN; type: in vivo, Matricaria inodora
Procedure, shortened: as §2

VERPE [13] = assay: Post-emergence herbicidal action against VERPE; type: in vivo, Veronica persica
Procedure, shortened: as §1

ALOMY [14] = assay: Pre-emergence herbicidal action against ALOMY; type: in vivo, Alopecurus myosuroides; conditions: for Pre-emergence action against ALOMY (herbicidal activity): 80 g/ha, scored visually after 3 weeks vs untreated controls (100% = plants have died, 0% = like control plants)
Procedure, shortened: as §2

SETVI [15] = assay: Post-emergence herbicidal action against SETVI; type: in vivo, Setaria viridis
Procedure, shortened: as §1

MATIN [16] = assay: Post-emergence herbicidal action against MATIN; type: in vivo, Matricaria inodora
Procedure, shortened: as §1

POLCO = assay: Pre-emergence herbicidal action against POLCO; type: in vivo, Polygonum convolvulus
Procedure, shortened: as §2

ALOMY [17] = assay: Post-emergence herbicidal action against ALOMY; type: in vivo, Alopecurus myosuroides; conditions: dosage 20 g/ha, visual assessment about 3 weeks after treatment vs untreated controls
Procedure, shortened: as §1

AMARE [18] = assay: Post-emergence herbicidal action against AMARE; type: in vivo, Amaranthus retroflexus; conditions: 20 g/ha, visual assessment about 3 weeks after treatment, 100% = plants have died, 0% = like control plants
Procedure, shortened: as §1

DIGSA [19] = assay: Post-emergence herbicidal action against DIGSA; type: in vivo, Digitaria sanguinalis; conditions: for Post-emergence action against DIGSA in %: 5 g/ha; for Post-emergence action against DIGSA: 20 g/ha
Procedure, shortened: as §1

DIGSA [20] = assay: Pre-emergence herbicidal action against DIGSA; type: in vivo, Digitaria sanguinalis
Procedure, shortened: as §2

AVEFA = assay: Pre-emergence herbicidal action against AVEFA; type: in vivo, Avena fatua; conditions: 80 g/ha, pre-emergence
Procedure, shortened: as §2

[21] = 20 g/ha, scored visually after 3 weeks vs untreated controls, 100% = plants have died, 0% = like control plants
[22] = 80 g/ha, scored visually after 3 weeks vs untreated controls (100% = plants have died, 0% = like control plants)

Structure (SMILES)	Post-emergence action against VIOTR in % (VIOTR [1]; 20 g/ha) [%]	Pre-emergence action against SETVI in % (SETVI [2]; dosage 80 g/ha) [%]	Post-emergence action against ABUTH in % (ABUTH [3]; dosage 20 g/ha) [%]	Pre-emergence action against PHBPU in % (PHBPU [4]) [%]	Post-emergence action against ECHCG in % (ECHCG [5]; dosage 20 g/ha) [%]	Pre-emergence action against ECHCG in % (ECHCG [6]) [%]	Pre-emergence action against VERPE in % (VERPE [7]; dosage 80 g/ha) [%]	Pre-emergence action against AMARE in % (AMARE [8]; [21]) [%]	Pre-emergence action against AMARE in % (AMARE [8]; [22]) [%]	Pre-emergence action against VIOTR in % (VIOTR [9]; dosage 80 g/ha) [%]	Pre-emergence action against ABUTH (herbicidal activity) (ABUTH [10]) [%]	Pre-emergence action against ABUTH (herbicidal activity in percent) (ABUTH [10]) [%]	Post-emergence action against PHBPU in % (PHBPU [11]; dosage 20 g/ha) [%]	Pre-emergence action against MATIN in % (MATIN [12]; dosage 20 g/ha) [%]	Pre-emergence action against MATIN in % (MATIN [12]; dosage 80 g/ha) [%]	Post-emergence action against VERPE in % (VERPE [13]; 20 g/ha) [%]	Pre-emergence action against ALOMY (herbicidal activity) (ALOMY [14]) [%]	Post-emergence action against MATIN in % (MATIN [16]; dosage 5 g/ha) [%]	Pre-emergence action against POLCO in % (POLCO; dosage 80 g/ha) [%]	Post-emergence action against ALOMY in % (ALOMY [17]) [%]	other results
CC(NC(=O)c1c(C(F)(F)F)ccc(C(=O)Nc2nnnn2C)c1C1CC1)C1CC1 (stereo not drawn) [Example 1-292]	80	100	80	80	80	90	100	100	100	100	100	100	80	100	100	90	90	80	90	80	Post-emergence action against ECHCG in % (ECHCG [5]; dosage 5 g/ha): 80%; Pre-emergence action against VERPE in % (VERPE [7]; dosage 20 g/ha): 100%; Pre-emergence action against VIOTR in % (VIOTR [9]; dosage 20 g/ha): 90%; Post-emergence action against PHBPU in % (PHBPU [11]; dosage 5 g/ha): 80%; Post-emergence action against VERPE in % (VERPE [13]; 5 g/ha): 80%; Pre-emergence action against ALOMY (ALOMY [14]; 20 g/ha, scored visually after 3 weeks, 100% = plants have died, 0% = like control plants): 80%; Post-emergence action against SETVI in % (SETVI [15]; dosage 20 g/ha): 90%; Post-emergence action against MATIN in % (MATIN [16]; dosage 20 g/ha): 80%; Post-emergence action at 20 g/ha against AMARE in % (AMARE [18]): 100%
CCn1nnnc1NC(=O)c1ccc(C(F)(F)F)c(C(=O)NC)c1OC [Example 2-56]	100	100	100	80	100	90	100	100	100	90	100	100	90	90	100	80	90	80	90	80	Post-emergence action against VIOTR in % (VIOTR [1]; 5 g/ha): 80%; Pre-emergence action against SETVI in % (SETVI [2]; dosage 20 g/ha): 100%; Post-emergence action against ABUTH in % (ABUTH [3]; dosage 5 g/ha): 100%; Post-emergence action against DIGSA in % (DIGSA [19]): 90%; Post-emergence action against DIGSA (DIGSA [19]): 100%; Pre-emergence action against VERPE in % (VERPE [7]; dosage 20 g/ha): 80%; Pre-emergence action against VIOTR in % (VIOTR [9]; dosage 20 g/ha): 80%; Post-emergence action against PHBPU in % (PHBPU [11]; dosage 5 g/ha): 80%; Post-emergence action against SETVI in % (SETVI [15]; dosage 5 g/ha): 80%; Post-emergence action against SETVI in % (SETVI [15]; dosage 20 g/ha): 100%; Post-emergence action against MATIN in % (MATIN [16]; dosage 20 g/ha): 90%; Post-emergence action at 20 g/ha against AMARE in % (AMARE [18]): 100%; Pre-emergence action against DIGSA in % (DIGSA [20]; dosage 20 g/ha): 100%; Pre-emergence action against DIGSA in % (DIGSA [20]; dosage 80 g/ha): 100%
CCn1nnnc1NC(=O)c1ccc(Br)c(C(=O)NC(C)C2CC2)c1Cl (stereo not drawn) [Example 2-183]	100	100	–	90	90	90	90	90	100	100	100	100	80	90	100	90	90	80	90	80	Post-emergence action against VIOTR in % (VIOTR [1]; 5 g/ha): 100%; Pre-emergence action against AVEFA in % (AVEFA): 80%; Post-emergence action against MATIN in % (MATIN [16]; dosage 20 g/ha): 90%; Pre-emergence action against POLCO in % (POLCO; dosage 20 g/ha): 90%; Pre-emergence action against DIGSA in % (DIGSA [20]; dosage 20 g/ha): 90%; Pre-emergence action against DIGSA in % (DIGSA [20]; dosage 80 g/ha): 100%
CCn1nnnc1NC(=O)c1ccc(C(F)(F)F)c(C(=O)NCC2CC2)c1C1CC1 [Example 2-289]	90	90	80	80	90	100	100	100	100	100	100	100	90	90	100	100	90	80	80	90	Post-emergence action against ECHCG in % (ECHCG [5]; dosage 5 g/ha): 80%; Post-emergence action against DIGSA in % (DIGSA [19]): 90%; Post-emergence action against DIGSA (DIGSA [19]): 100%; Pre-emergence action against VIOTR in % (VIOTR [9]; dosage 20 g/ha): 100%; Post-emergence action against VERPE in % (VERPE [13]; 5 g/ha): 80%; Post-emergence action against SETVI in % (SETVI [15]; dosage 20 g/ha): 80%; Post-emergence action against MATIN in % (MATIN [16]; dosage 20 g/ha): 90%; Post-emergence action at 20 g/ha against AMARE in % (AMARE [18]): 100%; Pre-emergence action against DIGSA in % (DIGSA [20]; dosage 20 g/ha): 100%; Pre-emergence action against DIGSA in % (DIGSA [20]; dosage 80 g/ha): 100%
Cc1nnc(NC(=O)c2ccc(C(F)F)c(C(=O)NC(C)C3CC3)c2C)o1 (stereo not drawn) [Example 6-258]	–	80	90	90	90	100	100	100	100	80	100	100	–	–	90	80	90	–	80	80	Post-emergence action against ABUTH in % (ABUTH [3]; dosage 5 g/ha): 80%; Post-emergence action against ECHCG in % (ECHCG [5]; dosage 5 g/ha): 80%; Post-emergence action against DIGSA (DIGSA [19]): 90%; Pre-emergence action against VERPE in % (VERPE [7]; dosage 20 g/ha): 90%; Post-emergence action at 20 g/ha against AMARE in % (AMARE [18]): 90%; Pre-emergence action against DIGSA in % (DIGSA [20]; dosage 20 g/ha): 100%; Pre-emergence action against DIGSA in % (DIGSA [20]; dosage 80 g/ha): 100%
